Assay results reported in ChEMBL document CHEMBL1201862, “PubChem BioAssay data set” (2004).
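Method: 48-hour compound exposure of cells in 96-well plates, five concentrations, linear interpolation of endpoints. At the GI50, growth is halved.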 The source made the active and inactive calls. Rule as the data show it: active = GI50 up to about 1.1 µM and inactive = higher.

Experiments:
Assay in all cases: NCI tumour cell line growth inhibition, 48 h
[1] = test system: A549
[2] = test system: ACHN
[3] = test system: BT-549
[4] = test system: CAKI-1
[5] = test system: CCRF-CEM
[6] = test system: COLO 205
[7] = test system: DU-145
[8] = test system: EKVX
[9] = test system: HCC 2998
[10] = test system: HCT-116
[11] = test system: HCT-15
[12] = test system: HL-60
[13] = test system: HOP-62
[14] = test system: HOP-92
[15] = test system: HT-29
[16] = test system: K562
[17] = test system: KM12
[18] = test system: LOX IMVI
[19] = test system: M14
[20] = test system: MCF7
[21] = test system: MDA-MB-231
[22] = test system: MDA-MB-435
[23] = test system: MDA-N
[24] = test system: MOLT-4
[25] = test system: Malme-3M
[26] = test system: NCI-H23
[27] = test system: NCI-H460
[28] = test system: NCI/ADR-RES
[29] = test system: OVCAR-3
[30] = test system: OVCAR-4
[31] = test system: OVCAR-5
[32] = test system: OVCAR-8
[33] = test system: PC-3
[34] = test system: RPMI-8226
[35] = test system: SF-295
[36] = test system: SK-MEL-28
[37] = test system: SK-MEL-2
[38] = test system: SK-MEL-5
[39] = test system: SN12C
[40] = test system: SNB-19
[41] = test system: SR
[42] = test system: TK-10
[43] = test system: U-251
[44] = test system: UACC-257
[45] = test system: UO-31

**Q.** For O=c1[nH]nc(NCc2ccccc2)c2nnn(Cc3ccccc3)c12, which GI50 [1] is on record?
**A.** > 100 µM (inactive)

**Q.** What about the GI50 [2] of the same compound?
**A.** > 100 µM (inactive)

**Q.** What about the GI50 [3] of the same compound?
**A.** > 100 µM (inactive)

**Q.** What about the GI50 [4] of the same compound?
**A.** > 100 µM (inactive)

**Q.** And the GI50 [5]?
**A.** > 100 µM (inactive)

**Q.** And the GI50 [6]?
**A.** > 100 µM (inactive)

**Q.** And the GI50 [7]?
**A.** > 100 µM (inactive)

**Q.** What about the GI50 [8] of the same compound?
**A.** > 100 µM (inactive)

**Q.** What about the GI50 [9] of the same compound?
**A.** > 100 µM (inactive)

**Q.** And the GI50 [10]?
**A.** > 100 µM (inactive)

**Q.** And the GI50 [11]?
**A.** > 100 µM

**Q.** What about the GI50 [12] of the same compound?
**A.** > 100 µM (inactive)

**Q.** What about the GI50 [13] of the same compound?
**A.** > 100 µM (inactive)

**Q.** And the GI50 [14]?
**A.** > 100 µM (inactive)

**Q.** What about the GI50 [15] of the same compound?
**A.** > 100 µM (inactive)

**Q.** And the GI50 [16]?
**A.** > 100 µM (inactive)

**Q.** What about the GI50 [17] of the same compound?
**A.** > 100 µM (inactive)

**Q.** And the GI50 [18]?
**A.** > 100 µM (inactive)

**Q.** And the GI50 [19]?
**A.** > 100 µM (inactive)

**Q.** What about the GI50 [20] of the same compound?
**A.** > 100 µM (inactive)

**Q.** What about the GI50 [21] of the same compound?
**A.** > 100 µM (inactive)

**Q.** What about the GI50 [22] of the same compound?
**A.** > 100 µM (inactive)

**Q.** What about the GI50 [23] of the same compound?
**A.** > 100 µM (inactive)

**Q.** And the GI50 [24]?
**A.** > 100 µM (inactive)

**Q.** And the GI50 [25]?
**A.** > 100 µM (inactive)

**Q.** And the GI50 [26]?
**A.** > 100 µM (inactive)

**Q.** And the GI50 [27]?
**A.** > 100 µM (inactive)

**Q.** And the GI50 [28]?
**A.** > 100 µM (inactive)

**Q.** What about the GI50 [29] of the same compound?
**A.** > 100 µM (inactive)

**Q.** And the GI50 [30]?
**A.** > 100 µM (inactive)

**Q.** What about the GI50 [31] of the same compound?
**A.** > 100 µM (inactive)

**Q.** What about the GI50 [32] of the same compound?
**A.** > 100 µM (inactive)

**Q.** What about the GI50 [33] of the same compound?
**A.** > 100 µM (inactive)

**Q.** And the GI50 [34]?
**A.** > 100 µM (inactive)

**Q.** What about the GI50 [35] of the same compound?
**A.** > 100 µM (inactive)

**Q.** And the GI50 [36]?
**A.** > 100 µM (inactive)

**Q.** And the GI50 [37]?
**A.** > 100 µM (inactive)

**Q.** And the GI50 [38]?
**A.** > 100 µM (inactive)

**Q.** What about the GI50 [39] of the same compound?
**A.** > 100 µM (inactive)

**Q.** What about the GI50 [40] of the same compound?
**A.** > 100 µM (inactive)

**Q.** What about the GI50 [41] of the same compound?
**A.** > 100 µM (inactive)

**Q.** What about the GI50 [42] of the same compound?
**A.** > 100 µM (inactive)

**Q.** And the GI50 [43]?
**A.** > 100 µM (inactive)

**Q.** And the GI50 [44]?
**A.** > 100 µM (inactive)

**Q.** And the GI50 [45]?
**A.** > 100 µM (inactive)
